In patent US7713994B2 (Wyeth LLC, priority 2005, dated 2010):
Like-named read-outs stand apart in the source and are kept apart here.

How the values were obtained:
BT474 = assay: Cytotoxicity assay (SRB), BT474; type: cell-based; details: BT474 cells, SRB, 6 days, read-out: In Vitro Cellular Activity IC50 BT474
In short: (§1)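 Plate cells, let them attach overnight, add compound dilutions in RPMI 1640/5% FBS, and incubate 3 days (BT474 6 days). Then fix with TCA, stain with SRB, dissolve the dye in Tris and read at 540 nm.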

HCT-116 = assay: Cytotoxicity assay (SRB), HCT-116; type: cell-based; details: HCT116 cells, SRB, three days, read-out: In Vitro Cellular Activity IC50 HCT116
In short: as §1

LoVo = assay: Cytotoxicity assay (SRB), LoVo; type: cell-based; details: LoVo cells, SRB, three days, read-out: In Vitro Cellular Activity IC50 LOVO
In short: as §1

MCF-7 = assay: Cytotoxicity assay (SRB), MCF-7; type: cell-based; details: MCF-7 cells, SRB, three days, read-out: In Vitro Cellular Activity IC50 MCF-7
In short: as §1

SK-UT-1B = assay: In Vitro Cellular Activity (Table III), SK-UT-1B; type: cell-based; details: SK-UT-1B cells
cyclin D1/cdk 4 enzyme = target: T1, cyclin D1/cdk 4 enzyme (Homo sapiens, UniProt P11802); assay: CDK4 ELISA kinase assay (phospho-Rb ser 795 detection); type: biochemical; details: In Vitro Enzyme Assays, 200 μM ATP, read-out: CDK4 IC50
T1 construct: made in house; host or cells: Sf9 insect cells, recombinant baculovirus
In short: (§2)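 Inhibition was derived from A450 relative to control wells lacking compound, following an anti-phospho-Rb Ser795 sandwich of HRP detection. The reactions combined coated GST-Rb fragment, 200 μM ATP and baculovirus-expressed cyclin/CDK enzymes, incubated for 1 h at 30° C.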

cyclin E/CDK2 enzyme = target: T2, cyclin E/CDK2 enzyme (Homo sapiens, UniProt P24941); assay: CDK2 ELISA kinase assay (phospho-Rb ser 795 detection); type: biochemical; details: In Vitro Enzyme Assays, read-out: CDK2 IC50
T2 construct: made in house; host or cells: Sf9 insect cells, recombinant baculovirus
In short: as §2

cyclin B/CDK1 enzyme = target: T3, cyclin B/CDK1 enzyme (Homo sapiens, UniProt P06493); assay: CDK1 ELISA kinase assay (phospho-Rb ser 795 detection); type: biochemical; details: In Vitro Enzyme Assays, read-out: CDK1 IC50
T3 construct: purchased New England BioLabs; host or cells: Sf9 insect cells, recombinant baculovirus
In short: as §2

T1 sequence (P11802 whole entry, species assumed): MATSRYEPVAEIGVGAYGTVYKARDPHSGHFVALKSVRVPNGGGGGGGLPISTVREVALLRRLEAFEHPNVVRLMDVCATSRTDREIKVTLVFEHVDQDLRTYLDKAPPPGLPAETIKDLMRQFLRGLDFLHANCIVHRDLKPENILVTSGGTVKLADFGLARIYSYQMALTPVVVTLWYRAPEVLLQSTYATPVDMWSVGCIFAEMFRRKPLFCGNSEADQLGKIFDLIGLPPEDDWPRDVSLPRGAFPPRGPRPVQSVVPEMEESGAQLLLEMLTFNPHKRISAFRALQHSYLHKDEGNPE
T1 sequence (P24385 whole entry partner, species assumed): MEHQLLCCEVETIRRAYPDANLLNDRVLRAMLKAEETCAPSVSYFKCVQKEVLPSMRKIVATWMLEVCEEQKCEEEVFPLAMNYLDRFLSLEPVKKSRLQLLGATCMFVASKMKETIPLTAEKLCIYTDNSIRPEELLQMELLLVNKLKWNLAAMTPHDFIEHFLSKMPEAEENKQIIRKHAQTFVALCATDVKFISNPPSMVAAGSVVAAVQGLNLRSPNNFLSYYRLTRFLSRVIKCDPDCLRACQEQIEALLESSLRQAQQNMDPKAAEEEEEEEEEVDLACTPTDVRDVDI
T3 sequence (P06493 whole entry): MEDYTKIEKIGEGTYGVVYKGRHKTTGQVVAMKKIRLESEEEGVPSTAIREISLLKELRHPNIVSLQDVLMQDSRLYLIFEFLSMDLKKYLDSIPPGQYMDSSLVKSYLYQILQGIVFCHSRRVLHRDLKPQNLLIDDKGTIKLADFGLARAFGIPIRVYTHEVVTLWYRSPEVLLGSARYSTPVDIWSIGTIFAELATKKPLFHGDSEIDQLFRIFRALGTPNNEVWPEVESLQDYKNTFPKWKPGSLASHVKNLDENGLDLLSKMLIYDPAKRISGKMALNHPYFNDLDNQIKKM
T3 sequence (P14635 whole entry partner): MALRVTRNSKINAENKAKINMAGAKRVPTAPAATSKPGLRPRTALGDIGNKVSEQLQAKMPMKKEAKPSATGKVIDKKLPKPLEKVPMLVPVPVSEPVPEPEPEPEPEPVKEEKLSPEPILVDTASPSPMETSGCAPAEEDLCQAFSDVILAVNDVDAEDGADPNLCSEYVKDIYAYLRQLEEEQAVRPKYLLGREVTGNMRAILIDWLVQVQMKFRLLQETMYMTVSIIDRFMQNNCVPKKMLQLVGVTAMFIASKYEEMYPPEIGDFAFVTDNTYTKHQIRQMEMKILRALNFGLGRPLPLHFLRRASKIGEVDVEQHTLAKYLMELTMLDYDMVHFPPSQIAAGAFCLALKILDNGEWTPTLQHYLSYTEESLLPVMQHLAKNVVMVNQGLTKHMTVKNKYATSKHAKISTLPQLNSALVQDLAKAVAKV

Row | Compound | melting point | IC50 (SK-UT-1B; Homo sapiens, Skut1B) | IC50 (cyclin D1/cdk 4 enzyme) | IC50 (cyclin E/CDK2 enzyme) | IC50 (cyclin B/CDK1 enzyme) | IC50 (SK-UT-1B) | IC50 (BT474; Homo sapiens, BT-474, 144 h) | IC50 (HCT-116; Homo sapiens, HCT-116, 72 h) | IC50 (LoVo; Homo sapiens, LoVo, 72 h) | IC50 (MCF-7; Homo sapiens, MCF7, 72 h) | IC50 (BT474) | IC50 (HCT-116) | IC50 (LoVo) | IC50 (MCF-7)
1 | COc1cc(CN/C=C2\C(=O)NC(=O)c3ccc(Br)cc32)ccc1O [Example 28, (4Z)-6-Bromo-4-{[(4-hydroxy-3-methoxybenzyl)amino]methylene}isoquinoline-1,3(2H,4H)-dione] | 260 to 261 °C | 33 µM |  |  |  |  | 39 µM | 28 µM | > 50 µM | > 50 µM |  |  |  | 
2 | (4E)-4-[4-(dimethylamino)benzylidene]isoquinoline-1,3(2H,4H)-dione-(4Z)-4-[4-(dimethylamino)benzylidene]isoquinoline-1,3(2H,4H)-dione (1:1) [Example 10] |  |  | > 50 µM | > 34 µM | > 34 µM | 23.6 µM |  |  |  |  | > 50 µM | 2.3 µM | 5.9 µM | 12.5 µM
3 | O=C1NC(=O)c2ccccc2/C1=C/Nc1cccc(CN2CCCCC2)c1 [Example 16, (4Z)-4-({[3-(Piperidin-1-ylmethyl)phenyl]amino}methylene)isoquinoline-1,3(2H,4H)-dione] | 173 to 174 °C | 18.5 µM |  |  |  |  | 45 µM | 14 µM | 14 µM | 19 µM |  |  |  | 
4 | O=C1NC(=O)c2ccccc2/C1=C/Nc1ccc(CN2CCC(O)CC2)cc1 [Example 23, (4Z)-4-[({4-[(4-Hydroxypiperidin-1-yl)methyl]phenyl}amino)methylene]isoquinolin-1,3(2H,4H)-dione] | 224 to 225 °C | 16.3 µM | 5.15 µM | 26 µM | > 26 µM |  |  | 10.5 µM |  | 8.7 µM |  |  |  | 
5 | O=C1NC(=O)c2ccccc2/C1=C/Nc1cccc(CN2CCCC2)c1 [Example 18, (4Z)-4-({[3-(Pyrrolidin-1-ylmethyl)phenyl]amino}methylene)isoquinoline-1,3(2H,4H)-dione] | 172 to 173 °C | 15.8 µM |  |  |  |  | 31 µM | 15 µM | 23 µM | 15 µM |  |  |  | 
6 | CN1CCN(c2ccc(N/C=C3\C(=O)NC(=O)c4ccc(Br)cc43)cc2)CC1 [Example 27, (4Z)-6-Bromo-4-({[4-(4-methylpiperazin-1-yl)phenyl}amino}methylene)isoquinoline-1,3(2H,4H)-dione] |  | 3.6 µM | 1.4 µM | > 50 µM | > 50 µM |  | 3.1 µM | 3.1 µM | 3.8 µM | 3 µM |  |  |  | 

The next lines start with results.

Row | melting point | IC50 (SK-UT-1B; Homo sapiens, Skut1B) | IC50 (cyclin D1/cdk 4 enzyme) | IC50 (cyclin E/CDK2 enzyme) | IC50 (cyclin B/CDK1 enzyme) | IC50 (SK-UT-1B) | Compound | IC50 (BT474; Homo sapiens, BT-474, 144 h) | IC50 (HCT-116; Homo sapiens, HCT-116, 72 h) | IC50 (LoVo; Homo sapiens, LoVo, 72 h) | IC50 (MCF-7; Homo sapiens, MCF7, 72 h) | IC50 (BT474) | IC50 (HCT-116) | IC50 (LoVo) | IC50 (MCF-7)
7 | 170 to 171 °C | 11 µM |  |  |  |  | O=C1NC(=O)c2ccc(Br)cc2/C1=C/Nc1ccccc1CN1CCCCC1 [Example 41, (4Z)-6-Bromo-4-({[2-(piperidin-1-ylmethyl)phenyl}amino)methylene]isoquinolin-1,3(2H,4H)-dione] | 25 µM | 39 µM | 49 µM | 13 µM |  |  |  | 
8 |  | 4.9 µM | > 50 µM | 1.4 µM | > 50 µM |  | O=C1NC(=O)c2ccc(Br)cc2/C1=C/NCc1cccnc1 [compound 30] | 31 µM | 9.2 µM | 14 µM | 15 µM |  |  |  | 
9 | 242 to 243 °C | 3.5 µM |  |  |  |  | O=C1NC(=O)c2cc(Br)ccc2/C1=C/Nc1ccc(CN2CCCCC2)cc1 [Example 44, (4Z)-7-Bromo-4-({[4-(Piperidin-1-ylmethyl)phenyl]amino}methylene)isoquinoline-1,3(2H,4H)-dione] | 4.6 µM | 3.6 µM | 4 µM | 6.6 µM |  |  |  | 
10 |  | 3.3 µM | 11 µM | > 50 µM | 7.2 µM |  | CN1CCN(c2ccc(N/C=C3\C(=O)NC(=O)c4ccc([N+](=O)[O-])cc43)cc2)CC1 [Example 33, (4Z)-6-Nitro-4-({[4-(4-methylpiperazin-1-yl)phenyl}amino}methylene)isoquinoline-1,3(2H,4H)-dione] | 5.2 µM | 3.3 µM | 3.2 µM | 11 µM |  |  |  | 
11 |  | 4.4 µM | 42 µM | 13 µM | > 32 µM |  | O=C1NCc2ccccc2/C1=C/Nc1ccc(-c2c[nH]cn2)cc1 [compound 3] | 20 µM | 7.8 µM | 12 µM | 11 µM |  |  |  | 
